In PubChem BioAssay (NCI):
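Each compound was tested at five concentrations against cells in 96-well plates for 48 hours. GI50: concentration for 50% inhibition of growth. At the TGI there is no net growth.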

Tests used:
Assay in all cases: DTP human tumour cell line panel, 48 h
[1] = tested on: 786-0 renal
[2] = tested on: A498 renal
[3] = tested on: A549 NSCLC
[4] = tested on: ACHN renal
[5] = tested on: BT-549 breast
[6] = tested on: CAKI-1 renal
[7] = tested on: CCRF-CEM leukemia
[8] = tested on: COLO 205 colon
[9] = tested on: DU-145 prostate
[10] = tested on: EKVX NSCLC
[11] = tested on: HCC-2998 colon
[12] = tested on: HCT-116 colon
[13] = tested on: HCT-15 colon
[14] = tested on: HL-60(TB) leukemia
[15] = tested on: HOP-62 NSCLC
[16] = tested on: HOP-92 NSCLC
[17] = tested on: HS 578T breast
[18] = tested on: HT29 colon
[19] = tested on: IGROV1 ovarian
[20] = tested on: K-562 leukemia
[21] = tested on: KM12 colon
[22] = tested on: LOX IMVI melanoma
[23] = tested on: MALME-3M melanoma
[24] = tested on: MCF7 breast
[25] = tested on: MDA-MB-231 breast
[26] = tested on: MDA-MB-435
[27] = tested on: MOLT-4 leukemia
[28] = tested on: NCI-H226 lung
[29] = tested on: NCI-H23 lung
[30] = tested on: NCI-H460 lung
[31] = tested on: NCI-H522 lung
[32] = tested on: NCI/ADR-RES ovarian
[33] = tested on: OVCAR-3 ovarian
[34] = tested on: OVCAR-4 ovarian
[35] = tested on: OVCAR-5 ovarian
[36] = tested on: OVCAR-8 ovarian
[37] = tested on: PC-3 prostate
[38] = tested on: RPMI-8226 leukemia
[39] = tested on: RXF 393 renal
[40] = tested on: SF-268 CNS
[41] = tested on: SF-295 CNS
[42] = tested on: SF-539 CNS
[43] = tested on: SK-MEL-2 melanoma
[44] = tested on: SK-MEL-28 melanoma
[45] = tested on: SK-MEL-5 melanoma
[46] = tested on: SK-OV-3 ovarian
[47] = tested on: SN12C renal
[48] = tested on: SNB-19 CNS
[49] = tested on: SNB-75 CNS
[50] = tested on: SR leukemia
[51] = tested on: SW-620 colon
[52] = tested on: T-47D breast
[53] = tested on: U251 CNS
[54] = tested on: UACC-257 melanoma
[55] = tested on: UACC-62 melanoma
[56] = tested on: UO-31 renal

N#Cc1ccc(O)c(C2=NCC(c3cccc(Oc4ccccc4)c3)O2)c1 (configuration not stated)
GI50 [1]: 761 nM | TGI [1]: 7.59 µM | GI50 [2]: 2060 nM | TGI [2]: 22.3 µM | GI50 [3]: 876 nM | TGI [3]: 11.8 µM | GI50 [4]: 615 nM | TGI [4]: 14.3 µM | GI50 [5]: 1960 nM | TGI [5]: 17.8 µM | GI50 [6]: 392 nM | TGI [6]: 37.9 µM | GI50 [7]: 555 nM | TGI [7]: > 100 µM | GI50 [8]: 3.13 µM | TGI [8]: 15.6 µM | GI50 [9]: 1270 nM | TGI [9]: > 100 µM | GI50 [10]: 507 nM | TGI [10]: > 100 µM | GI50 [11]: 881 nM | TGI [11]: 57.8 µM | GI50 [12]: 587 nM | TGI [12]: 13.7 µM | GI50 [13]: 363 nM | TGI [13]: 36.1 µM | GI50 [14]: 852 nM | TGI [14]: 9.29 µM | GI50 [15]: 605 nM | TGI [15]: 12.7 µM | GI50 [16]: 1810 nM | TGI [16]: 37 µM | GI50 [17]: 3.03 µM | TGI [17]: > 100 µM | GI50 [18]: 5.41 µM | TGI [18]: 41.6 µM | GI50 [19]: 787 nM | TGI [19]: 12.1 µM | GI50 [20]: 394 nM | TGI [20]: > 100 µM | GI50 [21]: 687 nM | TGI [21]: 23.1 µM | GI50 [22]: 420 nM | TGI [22]: 12.7 µM | GI50 [23]: 1830 nM | TGI [23]: 7.76 µM | GI50 [24]: 792 nM | TGI [24]: 15.8 µM | GI50 [25]: 1280 nM | TGI [25]: 12 µM | GI50 [26]: 1630 nM | TGI [26]: > 100 µM | GI50 [27]: 1670 nM | TGI [27]: > 100 µM | GI50 [28]: 1700 nM | TGI [28]: 11.1 µM | GI50 [29]: 1270 nM | TGI [29]: > 100 µM | GI50 [30]: 434 nM | TGI [30]: 10.2 µM | GI50 [31]: 1170 nM | TGI [31]: 12.3 µM | GI50 [32]: 290 nM | TGI [32]: 6.51 µM | GI50 [33]: 432 nM | TGI [33]: 10.8 µM | GI50 [34]: 519 nM | TGI [34]: > 100 µM | GI50 [35]: 2950 nM | TGI [35]: > 100 µM | GI50 [36]: 578 nM | TGI [36]: > 100 µM | GI50 [37]: 938 nM | TGI [37]: 41.6 µM | GI50 [38]: 715 nM | TGI [38]: > 100 µM | GI50 [39]: 1530 nM | TGI [39]: 9.56 µM | GI50 [40]: 1300 nM | TGI [40]: > 100 µM | GI50 [41]: 413 nM | TGI [41]: 23.5 µM | GI50 [42]: 1830 nM | TGI [42]: 9.27 µM | GI50 [43]: 2410 nM | TGI [43]: 24.4 µM | GI50 [44]: 2090 nM | TGI [44]: > 100 µM | GI50 [45]: 549 nM | TGI [45]: 2300 nM | GI50 [46]: 1580 nM | TGI [46]: 21.3 µM | GI50 [47]: 1210 nM | TGI [47]: 89.5 µM | GI50 [48]: 1390 nM | TGI [48]: > 100 µM | GI50 [49]: 1080 nM | TGI [49]: > 100 µM | GI50 [50]: 933 nM | TGI [50]: > 100 µM | GI50 [51]: 508 nM | TGI [51]: 22.8 µM | GI50 [52]: 817 nM | TGI [52]: 59.6 µM | GI50 [53]: 503 nM | TGI [53]: > 100 µM | GI50 [54]: 2280 nM | TGI [54]: 7.29 µM | GI50 [55]: 1030 nM | TGI [55]: 2270 nM | GI50 [56]: 449 nM | TGI [56]: 2750 nM
